Results: paper PMC10589313 (Nature Communications, 2023)
Where “and” joins values, the source holds several entries; their conditions need not be identical. Equal entries are not always repeated.

Tests used:
[1] = molecular target: T1, human H4R Q347G mutant (Homo sapiens, UniProt Q9H3N8, Q347G); experiment: TGFα shedding assay, H4R Q347G mutant; assay type: cell-based
T1 construct: a mutant H4R (human, full-length, and untagged); expressed in transfected cells; host or cells: HEK293A
Description: (§1) The mutants were prepared using the primers listed in Supplementary Table 2. […] The chimeric Gαq/i1 subunit comprises the Gαq backbone and Gαi1-derived six-amino acid C-terminus and couples with Gi-coupled H4R but induces a Gq-dependent TGFα shedding response. After culturing for 1 day and incubating at 37 °C in a 5% CO2 incubator, the transfected cells were harvested by trypsinization, neutralized with Dulbecco’s modified Eagle’s medium containing 10% fetal calf serum (FCS) and penicillin–streptomycin, washed once with Hank’s balanced salt solution (HBSS) containing 5 mM of HEPES (pH 7.4), and resuspended in 6 mL of the HEPES-containing HBSS. The cell suspension was seeded into a 96-well plate at a volume of […] per well (typically, 48 wells per transfected cells) and incubated for 30 min in the CO2 incubator. Test compounds (10×, diluted in 0.01% BSA and 5 mM of HEPES-containing HBSS, […] volume) were added to duplicate wells and incubated for 1 h. After centrifugation, the conditioned medium ([…]) was transferred to an empty 96-well plate. AP reaction solution [10 mM of p-nitrophenylphosphate (p-NPP), 120 mM of Tris–HCl (pH 9.5), 40 mM of NaCl, and 10 mM of MgCl2] was dispensed into the cell culture plates and plates containing conditioned media ([…]). Absorbance was measured at 405 nm before and after a 1-h incubation period at 25 °C using a microplate reader (iMark™ Microplate Absorbance Reader; BioRad). Ligand-induced AP-TGFα release was calculated as previously described. The vehicle-treated AP-TGFα release signal was set as a baseline unless otherwise specified. AP-TGFα release signals were fitted with a four-parameter sigmoidal concentration-response curve, from which EC50 and Emax values were obtained, using GraphPad Prism 9 software (GraphPad Prism). Negative values of logarithmically transformed EC50 values (pEC50) were used to calculate the mean and standard error of independent experiments.
(§2) All functional study data were analyzed using Prism 9 (GraphPad) and are presented as mean ± standard error of the mean (SEM) of three independent experiments. Statistical analyses were performed using Prism 9 (GraphPad) with one-way analysis of variance followed by Dunnett’s post-hoc test. Values with p < 0.05 are considered statistically significant.

[2] = molecular target: T2, human H4R N147A mutant (Homo sapiens, UniProt Q9H3N8, N147A); experiment: TGFα shedding assay, H4R N147A mutant; assay type: cell-based; conditions: for EC50: EC50 (nM)
T2 construct: a mutant H4R (human, full-length, and untagged); expressed in transfected cells; host or cells: HEK293A
T2 sequence (Q9H3N8 whole entry N147A): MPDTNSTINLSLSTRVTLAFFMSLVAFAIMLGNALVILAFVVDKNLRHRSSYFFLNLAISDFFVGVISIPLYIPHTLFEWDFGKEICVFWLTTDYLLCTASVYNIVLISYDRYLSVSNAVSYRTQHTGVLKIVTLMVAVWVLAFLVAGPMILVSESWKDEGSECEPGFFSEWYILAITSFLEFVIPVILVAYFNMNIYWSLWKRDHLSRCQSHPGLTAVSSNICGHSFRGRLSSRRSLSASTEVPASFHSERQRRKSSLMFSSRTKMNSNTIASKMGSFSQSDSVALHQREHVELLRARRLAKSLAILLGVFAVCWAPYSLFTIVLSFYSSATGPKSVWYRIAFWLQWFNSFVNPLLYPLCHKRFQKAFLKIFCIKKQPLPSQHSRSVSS
Description: as §1, §2

[3] = molecular target: T3, human H4R Y319A mutant (Homo sapiens, UniProt Q9H3N8, Y319A); experiment: TGFα shedding assay, H4R Y319A mutant; assay type: cell-based
T3 construct: a mutant H4R (human, full-length, and untagged); expressed in transfected cells; host or cells: HEK293A
T3 sequence (Q9H3N8 whole entry Y319A): as the sequence (Q9H3N8 whole entry N147A) above, with A147N, Y319A counted along it
Description: as §1, §2

[4] = system: H2R; conditions: in words; cited from earlier work
[5] = molecular target: T4, human H4R Y95A mutant (Homo sapiens, UniProt Q9H3N8, Y95A); experiment: TGFα shedding assay, H4R Y95A mutant; assay type: cell-based
T4 construct: a mutant H4R (human, full-length, and untagged); expressed in transfected cells; host or cells: HEK293A
T4 sequence (Q9H3N8 whole entry Y95A): as the sequence (Q9H3N8 whole entry N147A) above, with Y95A, A147N counted along it
Description: as §1
(§3) All functional study data were analyzed using Prism 9 (GraphPad) and are presented as mean ± standard error of the mean (SEM) of three independent experiments. […]

[6] = molecular target: T5, human H4R W348Y mutant (Homo sapiens, UniProt Q9H3N8, W348Y); experiment: TGFα shedding assay, H4R W348Y mutant; assay type: cell-based
T5 construct: a mutant H4R (human, full-length, and untagged); expressed in transfected cells; host or cells: HEK293A
T5 sequence (Q9H3N8 whole entry W348Y): as the sequence (Q9H3N8 whole entry N147A) above, with A147N, W348Y counted along it
Description: as §1, §3

[7] = molecular target: T6, human H4R N147Y mutant (Homo sapiens, UniProt Q9H3N8, N147Y); experiment: TGFα shedding assay, H4R N147Y mutant; assay type: cell-based; conditions: for EC50: EC50 (nM)
T6 construct: a mutant H4R (human, full-length, and untagged); expressed in transfected cells; host or cells: HEK293A
T6 sequence (Q9H3N8 whole entry N147Y): as the sequence (Q9H3N8 whole entry N147A) above, with A147Y counted along it
Description: as §1, §2

[8] = molecular target: T7, human H4R W348A mutant (Homo sapiens, UniProt Q9H3N8, W348A); experiment: TGFα shedding assay, H4R W348A mutant; assay type: cell-based
T7 construct: a mutant H4R (human, full-length, and untagged); expressed in transfected cells; host or cells: HEK293A
T7 sequence (Q9H3N8 whole entry W348A): as the sequence (Q9H3N8 whole entry N147A) above, with A147N, W348A counted along it
Description: as §1, §3

[9] = Imetit (M) -5 (log concentration), raw replicate values

T1 sequence (Q9H3N8 whole entry Q347G): as the sequence (Q9H3N8 whole entry N147A) above, with A147N, Q347G counted along it

Question: What does the source list for `N=C(N)SCCc1cnc[nH]1` [Imetit, imetit]?
Answer: EC50 ([1]; EC50 (nM), Q347G mutant): 6.2 nM; EC50 ([1]; EC50 (nM), Q347G, single experiments, source data Figure 4e-f): 1.75 nM and 12.3 nM and 4.7 nM; Shedding assay response, Q347G [1, 9]: 13.312 and 10.4592 and 11.4881 and 12.2257 and 13.3616 and 12.7037 and 13.9485 and 10.6151 and 26.3814; signaling activity at mutant, in words ([1]; Q347G (H1R/H2R type) mutant vs wild type): slight increase; fold of change ([1]; Q347G mutant, EC50 relative to WT): 0.2 fold; EC50 ([1]; pEC50, Q347G, single experiments, source data Figure 4e-f): 12.3 nM; EC50 ([1]; pEC50 mean ± SEM, Q347G mutant): 4.68 nM; Emax ([1]; read-out: Emax (%) mean ± SEM): 12.9 ± 1.22%; EC50 ([2]; N147A mutant): 116 nM; EC50 ([2]; N147A, single experiments, source data Figure 4e-f): 137 nM and 107 nM and 104 nM; Shedding assay response, N147A [2, 9]: 17.6838 and 20.1153 and 13.587 and 17.1019 and 17.2369 and 16.9193 and 20.3122 and 17.3343 and 19.4779; fold of change ([2]; N147A mutant, EC50 relative to WT): 3.9 fold; Emax ([2]; read-out: Emax (%) mean ± SEM): 17.2 ± 0.52%; EC50 ([3]; EC50 (nM), Y319A mutant): 159 nM; Shedding assay response, Y319A [3, 9]: 15.1866 and 16.9873 and 18.1596 and 17.4201 and 15.3203 and 22.2497 and 14.1035 and 13.1515 and 10.7745; fold of change ([3]; Y319A mutant, EC50 relative to WT): 5.3 fold; EC50 ([3]; pEC50 mean ± SEM, Y319A mutant): 141 nM; Emax ([3]; read-out: Emax (%) mean ± SEM): 15.8 ± 1.58%; binding to H2R [4]: does not bind; EC50 [5]: > 10000 nM; Shedding assay response, Y95A [5, 9]: 0.2008 and 4.141 and 6.475 and 5.892 and -1.081 and 3.761 and 1.333 and 3.151 and 12.3655; EC50 [6]: > 10000 nM; Shedding assay response, W348Y [6, 9]: 5.993 and 7.639 and 4.713 and 7.402 and 9.589 and 3.141 and 9.854 and 11.9801 and 8.402; signaling activity at mutant, in words ([6]; W348Y (H1R mimic) mutant vs wild type): loss of imetit activity; EC50 ([7]; N147Y mutant): 319 nM; EC50 ([7]; N147Y, single experiments, source data Figure 4e-f): 632 nM and 127 nM and 200 nM; Shedding assay response, N147Y [7, 9]: 5.667 and 6.627 and 11.6194 and 11.6248 and 10.5662 and 9.653 and 14.7457 and 12.0475 and 16.0734; fold of change ([7]; N147Y mutant, EC50 relative to WT): 10.7 fold; Emax ([7]; read-out: Emax (%) mean ± SEM): 11.1 ± 1.47%; EC50 [8]: > 10000 nM; Shedding assay response, W348A [8, 9]: 2.59 and 2.574 and 7.329 and -2.233 and 0.1771 and -0.5753 and 0.3498 and -1.339 and 0.3261
